{
  "source": "patent US7927612B2",
  "about": "“Combinations and methods for treating neoplasms” (priority 2000, dated 2011)",
  "key": {"liver cancer cells": {"tested_on": "liver cancer cells", "assay": "Treatment efficacy study in mice with implanted liver cancer cells: tumor volume (Example 9, Tables 14-16)", "assay_type": "in vivo, Kuiking mice", "parameters": "Everage TV1 (average tumor volume): unit not given here", "conditions": "control group", "protocol": "Kuiking mice were used in this study. The average weight of the mice used in this study is about 23 grams. About 10^3 liver cancer cells were implanted into the left army pit of mice. […] The mice were divided into three groups: control group, therapy group and immunotherapy group. In the control group, 0.1 ml of Ara-C in normal saline was injected to the tumor via intro-tumor injection. […]"}, "[1]": {"assay": "Body weight of tumor-bearing mice in the treatment efficacy study (Example 9, Tables 14-16)", "assay_type": "in vivo, Kuiking mice", "parameters": "unit: g", "conditions": "control group", "protocol": "Kuiking mice were used in this study. The average weight of the mice used in this study is about 23 grams. About 10^3 liver cancer cells were implanted into the left army pit of mice. At about 10 days, the small tumor grew under the mice skin. At about 15 days, the tumor grew to about 1 cm size. The mice were divided into three groups: control group, therapy group and immunotherapy group. In the control group, 0.1 ml of Ara-C in normal saline was injected to the tumor via intro-tumor injection.\nIn the immunotherapy group, 0.1 ml of the combination of ethanol, H2O2, anticancer drug AraC, hemotoxilin and TNP in normal saline was injected to the tumor via intro-tumor injection."}, "[2]": {"conditions": "Date (start), individual mice No. 1-10"}},
  "note": "“And” between values parts separate entries of the source, which are not always exact repeats. Equal values may be shown once.",
  "data": [
    {"substance": "Cytidine Arabinosyladenine [Ara-C]", "values": [
      {"measurement": "Everage TV1 (average tumor volume)", "setting": "liver cancer cells; 1 d", "result": 0.8},
      {"measurement": "TV (tumor volume)", "setting": "liver cancer cells; 1 d, individual mice", "result": "1.3*0.7*0.5 = 0.455 Scm and 1.1*0.8*0.6 = 0.528 Scm and 1.4*1.1*1 = 1.54 Scm and 1*0.9*0.6 = 0.54 Scm and 1.1*1*0.7 = 0.77 Scm and 1.3*0.9*0.8 = 0.94 Scm and 1*0.7*0.7 = 0.49 Scm and 1.1*0.7*0.6 = 0.462 Scm"},
      {"measurement": "Everage TV1 (average tumor volume)", "setting": "liver cancer cells; 2 d", "result": 1.33},
      {"measurement": "TV (tumor volume)", "setting": "liver cancer cells; 2 d, individual mice", "result": "1.2*1.1*0.8 = 1.1 Scm and 1.2*0.9*0.5 = 0.54 Scm and 1.4*1.2*0.8 = 1.34 Scm and 1*0.8*0.6 = 0.48 Scm and 1.3*0.6*0.5 = 0.39 Scm and 1.3*1*0.8 = 1.04 Scm and 1.3*0.8*0.7 = 0.73 Scm and 1.2*1.1*0.8 = 1.06 Scm and 1.2*1*0.8 = 0.96 Scm and 1.3*0.9*0.6 = 0.702 Scm"},
      {"measurement": "Everage TV1 (average tumor volume)", "setting": "liver cancer cells; 3 d", "result": 1.47},
      {"measurement": "TV (tumor volume)", "setting": "liver cancer cells; 3 d, individual mice", "result": "1.1*1.2*0.7 = 0.924 Scm and 1.5*1.2*1 = 1.8 Scm (2×) and 1.2*0.9*0.6 = 0.648 Scm and 1.2*1.1*0.8 = 1.1 Scm and 1.2*1*0.6 = 0.72 Scm and 1.4*1.1*0.7 = 1.08 Scm and 1.4*1.2*0.8 = 1.34 Scm and 1*1*0.6 = 0.6 Scm"},
      {"measurement": "Everage TV1 (average tumor volume)", "setting": "liver cancer cells; 4 d", "result": 1.47},
      {"measurement": "TV (tumor volume)", "setting": "liver cancer cells; 4 d, individual mice", "result": "1.3*1.4*1.1 = 2 Scm and 1.5*1*0.6 = 0.99 Scm and 1.6*1.4*1 = 2.24 Scm and 1.2*0.8*0.5 = 1 Scm and 1.6*1.3*1.4 = 2.9 Scm and 1.4*0.8*0.6 = 0.67 Scm and 1.5*1.2*1.1 = 1.98 Scm and 1.2*1.1*0.8 = 1.06 Scm and 1.3*1.1*0.8 = 1.14 Scm and 1*1*0.7 = 0.7 Scm"},
      {"measurement": "Everage TV1 (average tumor volume)", "setting": "liver cancer cells; 5 d", "result": 1.65},
      {"measurement": "TV (tumor volume)", "setting": "liver cancer cells; 5 d, individual mice", "result": "1.4*1*1 = 1.4 Scm and 1.5*1.3*1 = 1.95 Scm and 1.5*1.1*0.7 = 1.16 Scm and 1.7*1.3*0.9 = 1.98 Scm and 1.2*1.2*0.7 = 1 Scm and 1.5*1.3*0.9 = 1.75 Scm and 1.7*1.4*1 = 2.38 Scm and 1.4*1.4*1 = 1.96 Scm and 1.6*1*0.8 = 1.28 Scm"},
      {"measurement": "Everage TV1 (average tumor volume)", "setting": "liver cancer cells; 6 d", "result": 1.87},
      {"measurement": "TV (tumor volume)", "setting": "liver cancer cells; 6 d, individual mice", "result": "1.3*1.1*0.8 = 1.14 Scm and 1.6*1.3*1.1 = 2.28 Scm and 1.2*1*0.5 = 0.6 Scm and 1.8*1.2*1 = 2.16 Scm and 1.3*1.5*0.6 = 1.17 Scm and 1.6*1.4*1 = 2.24 Scm and 1.9*1.6*1.2 = 3.6 Scm and 1.5*1.4*1.1 = 2.31 Scm and 1.4*1.2*0.8 = 1.34 Scm"},
      {"measurement": "Everage TV1 (average tumor volume)", "setting": "liver cancer cells; 7 d", "result": 2.59},
      {"measurement": "TV (tumor volume)", "setting": "liver cancer cells; 7 d, individual mice", "result": "1.5*0.8*0.7 = 0.84 Scm and 1.8*1.6*1.5 = 4.32 Scm and 1.4*0.9*0.6 = 0.76 Scm and 1.9*1.4*1.2 = 3.19 Scm and 1.5*1.3*0.9 = 1.76 Scm and 1.9*1.5*1 = 2.85 Scm and 1.8*1.5*1.5 = 4 Scm and 1.5*1.4*1.3 = 2.73 Scm and 1.5*1.6*1.2 = 2.88 Scm"},
      {"measurement": "Everage TV1 (average tumor volume)", "setting": "liver cancer cells; 8 d", "result": 2.73},
      {"measurement": "TV (tumor volume)", "setting": "liver cancer cells; 8 d, individual mice", "result": "1.3*0.9*0.7 = 0.819 Scm and 1.4*1.5*1.3 = 2.73 Scm and 1.8*1.2*1.2 = 2.59 Scm and 1.2*0.7*0.6 = 0.5 Scm and 1.5*1.5*1.2 = 2.7 Scm and 1.5*1.6*1.4 = 3.36 Scm and 1.5*1.3*1.2 = 2.34 Scm and 1.5*1.4*1.2 = 2.52 Scm and 1.5*1.2*1.1 = 1.98 Scm"},
      {"measurement": "Everage TV1 (average tumor volume)", "setting": "liver cancer cells; 9 d", "result": 3.12},
      {"measurement": "TV (tumor volume)", "setting": "liver cancer cells; 9 d, individual mice", "result": "1.5*1.2*0.9 = 1.62 Scm and 1.8*1.8*1.8 = 5.8 Scm and 1.9*1.5*1.4 = 3.99 Scm and 1.6*1.1*0.7 = 1.2 Scm and 2.1*1.5*1.4 = 4.4 Scm and 1.3*1.4*1.1 = 2 Scm and 1.7*1.4*1.1 = 2.62 Scm and 1.4*1.6*1.4 = 3.14 Scm and 1.8*1.4*1.3 = 3.28 Scm"},
      {"measurement": "Everage TV1 (average tumor volume)", "setting": "liver cancer cells; Date (start)", "result": 0.343},
      {"measurement": "TV (tumor volume)", "setting": "liver cancer cells; [2]", "result": "0.8*0.6*0.4 = 0.192 Scm and 1*0.5*0.3 = 0.15 Scm and 1.3*0.9*0.6 = 0.7 Scm and 1*0.7*0.5 = 0.35 Scm and 0.9*0.7*0.5 = 0.32 Scm and 0.8*0.6*0.5 = 0.24 Scm and 1*0.9*0.6 = 0.54 Scm and 1*0.8*0.5 = 0.4 Scm and 0.7*0.7*0.6 = 0.294 Scm and 0.7*0.7*0.5 = 0.245 Scm"},
      {"measurement": "Weight", "setting": "[1]; 1 d, individual mice", "result": "25 (3×) and 20 and 21 and 17 and 25.5 and 18 and 23.5 and 27"},
      {"measurement": "Weight", "setting": "[1]; 2 d, individual mice", "result": "24 (2×) and 19 (2×) and 16.5 and 17 and 23.8 and 17.5 and 21 and 25"},
      {"measurement": "Weight", "setting": "[1]; 3 d, individual mice", "result": "22 (4×) and 17.5 and 17 and 15 and 16.5 and 20 and 23.5"},
      {"measurement": "Weight", "setting": "[1]; 4 d, individual mice", "result": "26.5 and 24 (2×) and 28.2 and 22.8 and 15.8 and 16.5 and 26 and 20 and 28.5"},
      {"measurement": "Weight", "setting": "[1]; 5 d, individual mice", "result": "24.5 and 30 and 28.5 and 24 (2×) and 28 and 19 and 26.5 and 21.5"},
      {"measurement": "Weight", "setting": "[1]; 6 d, individual mice", "result": "23.5 and 31 and 29.5 and 24.5 and 28 (2×) and 24 and 19 and 22"},
      {"measurement": "Weight", "setting": "[1]; 7 d, individual mice", "result": "24 (2×) and 32.5 and 29 and 24.5 and 28.5 and 19.5 and 28 and 21"},
      {"measurement": "Weight", "setting": "[1]; 8 d, individual mice", "result": "24.5 (3×) and 33 and 24 and 28.5 (2×) and 20 and 21"},
      {"measurement": "Weight", "setting": "[1]; 9 d, individual mice", "result": "24.5 (2×) and 33.5 and 23.5 and 28.5 (2×) and 21 and 29 and 23"},
      {"measurement": "Weight", "setting": "[1]; [2]", "result": "23.5 and 24 and 22.5 and 18 and 18.5 and 14 and 23 and 14.5 and 20 and 26"}
    ]}
  ]
}
